Patent US20200071326A1, “TAM KINASE INHIBITORS” (Syros Pharmaceuticals, Inc., priority 2017, published 2020)
Where a name gives a salt, the structure may show the parent alone.

Legend:
MERTK = biological target: T1, MERTK (Homo sapiens, UniProt Q12866); assay: IMAP fluorescence polarization kinase assay, MERTK; assay type: biochemical; conditions: ATP 2.69 μM, enzyme 1.5 nM, 240 minutes, read-out: MERTK inhibitory constant (Ki)
T1 sequence (Q12866 21-999): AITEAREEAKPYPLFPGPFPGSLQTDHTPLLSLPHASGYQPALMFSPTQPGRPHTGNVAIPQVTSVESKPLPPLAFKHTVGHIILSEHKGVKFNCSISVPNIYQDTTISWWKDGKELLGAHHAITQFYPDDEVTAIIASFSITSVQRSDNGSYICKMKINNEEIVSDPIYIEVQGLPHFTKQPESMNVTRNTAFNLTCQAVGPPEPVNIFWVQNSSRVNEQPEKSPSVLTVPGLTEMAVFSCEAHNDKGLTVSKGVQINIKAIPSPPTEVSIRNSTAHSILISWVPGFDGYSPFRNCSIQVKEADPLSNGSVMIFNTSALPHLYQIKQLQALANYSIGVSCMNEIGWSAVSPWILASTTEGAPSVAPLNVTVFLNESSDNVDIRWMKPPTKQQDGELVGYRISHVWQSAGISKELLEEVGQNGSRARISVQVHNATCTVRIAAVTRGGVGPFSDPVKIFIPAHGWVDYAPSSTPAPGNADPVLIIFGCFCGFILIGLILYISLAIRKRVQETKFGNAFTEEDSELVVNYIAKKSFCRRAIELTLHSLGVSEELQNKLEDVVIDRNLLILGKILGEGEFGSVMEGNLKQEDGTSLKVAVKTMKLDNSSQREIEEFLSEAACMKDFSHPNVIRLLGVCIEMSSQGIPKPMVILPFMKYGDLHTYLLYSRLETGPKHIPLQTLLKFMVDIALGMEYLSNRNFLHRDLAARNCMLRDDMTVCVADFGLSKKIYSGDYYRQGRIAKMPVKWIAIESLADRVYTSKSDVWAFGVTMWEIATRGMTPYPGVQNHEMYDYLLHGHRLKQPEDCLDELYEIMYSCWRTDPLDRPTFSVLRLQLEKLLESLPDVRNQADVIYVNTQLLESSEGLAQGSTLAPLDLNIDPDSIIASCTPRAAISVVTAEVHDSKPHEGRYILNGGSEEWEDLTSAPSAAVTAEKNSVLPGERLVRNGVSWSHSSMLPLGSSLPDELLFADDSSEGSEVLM
Description: (§1) Activities of compounds against each of TYRO3, AXL, and MERTK as well as against FLT3, were determined using an immobilized metal ion affinity-based fluorescence polarization (“IMAP”) assay. A fluorescently-labeled substrate peptide was phosphorylated in the kinase reaction, after which a binding solution containing large trivalent metal-based nanoparticles was added and the phosphorylated substrate binds to these beads. This reduces the rotational speed of the substrate which is then detected using fluorescence polarization as a read-out.
(§2) The substrates used for each enzyme are as follows: AXL: 5F1-KKKKEEIYFFFG-NH2(SEQ ID NO:1); FLT3: 5F1-KKKKEEIYFFF-NH2 (SEQ ID NO:2); MERTK: 5F1-EFPIYDFLPAKKK-NH2 (SEQ ID NO:3); and TYRO3: 5F1-EFPIYDFLPAKKK-NH2 (SEQ ID NO:4).
(§3) This assay was performed in a 384-well, polystyrene microplate in a final volume of 8 μl. Substrate (final concentration=400 nM), ATP (final concentrations=24.7μM for AXL; 2.74 μM for FLT3; 2.69 μM for MERTK; and 54.0 μM for TYRO3), compounds and enzyme (final concentrations=2.5 nM for AXL, FLT3 and TYRO3; 1.5 nM for MERTK) were pipetted in this order into the appropriate reaction buffer (AXL: 50 mM HEPES, pH 8.0, 1 mM DTT, 10 mM MgCl2, 0.01% BRU35, 0.01% Triton X-100; FLT3: 50 mM HEPES, pH 8.0, 1 mM DTT, 10 mM MgCl2, 0.01% Triton X-100, 0.01% NP40; MERTK/TYRO3: 50 mM HEPES, pH 8.0, 1 mM DTT, 10 mM MgCl2, 0.01% Triton X-100) and incubated at room temperature for varying times (AXL, FLT3 and MERTK: 240 minutes; TYRO3: 60 minutes). IMAP binding solution was then dispensed, the plate incubated for 60 minutes at room temperature and the fluorescence polarization measured. Data were analyzed using XLfit.

AXL = biological target: T2, AXL (Homo sapiens, UniProt P30530); assay: IMAP fluorescence polarization kinase assay, AXL; assay type: biochemical; conditions: ATP 24.7 μM, enzyme 2.5 nM, 240 minutes, read-out: AXL inhibitory constant (Ki)
T2 sequence (P30530 26-894): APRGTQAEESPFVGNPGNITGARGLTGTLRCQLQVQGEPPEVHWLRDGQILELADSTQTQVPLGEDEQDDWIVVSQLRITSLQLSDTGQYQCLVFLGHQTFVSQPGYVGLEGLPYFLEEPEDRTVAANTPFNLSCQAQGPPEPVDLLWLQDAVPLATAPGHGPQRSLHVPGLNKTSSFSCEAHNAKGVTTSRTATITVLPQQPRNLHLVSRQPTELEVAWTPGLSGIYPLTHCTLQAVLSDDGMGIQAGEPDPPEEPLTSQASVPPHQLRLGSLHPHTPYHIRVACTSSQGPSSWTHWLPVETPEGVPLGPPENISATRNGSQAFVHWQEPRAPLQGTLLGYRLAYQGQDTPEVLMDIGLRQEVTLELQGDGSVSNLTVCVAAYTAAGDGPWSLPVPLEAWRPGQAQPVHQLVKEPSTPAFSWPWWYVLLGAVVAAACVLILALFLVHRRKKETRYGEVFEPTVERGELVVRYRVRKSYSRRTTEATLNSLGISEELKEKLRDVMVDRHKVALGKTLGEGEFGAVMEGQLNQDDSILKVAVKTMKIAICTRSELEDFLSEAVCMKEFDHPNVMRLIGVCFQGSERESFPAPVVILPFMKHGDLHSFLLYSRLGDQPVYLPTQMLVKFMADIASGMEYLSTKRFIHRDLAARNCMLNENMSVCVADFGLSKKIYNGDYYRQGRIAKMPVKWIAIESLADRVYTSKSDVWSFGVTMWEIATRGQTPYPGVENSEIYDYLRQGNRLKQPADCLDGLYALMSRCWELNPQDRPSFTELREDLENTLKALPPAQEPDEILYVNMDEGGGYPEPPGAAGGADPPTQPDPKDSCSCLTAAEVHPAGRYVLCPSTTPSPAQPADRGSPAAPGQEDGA
Description: as §1, §2, §3

Compound	Ki (MERTK) [nM]	Ki (AXL) [nM]
C#Cc1cc2c(N[C@H]3CC[C@H](N)CC3)c(C(=O)Nc3ccc(F)cc3)cnc2[nH]1 [Compound 128, [4-1(4-aminocyclohexyl)amino]-2-ethynyl-N-(4-fluorophenyl)-1H-pyrrolo[2,3-b]pyridine-5-carboxamide]	100 to 1000	1000 to 10000
CC(C)c1cc2c(N[C@H]3CC[C@H](N)CC3)c(C(=O)NCc3ccc(-n4ccnc4)cc3)cnc2[nH]1 [Compound 129]	< 100	100 to 1000
CCCc1cc2c(N[C@H]3CC[C@H](N)CC3)c(-c3ccc(COC(C)C)cn3)cnc2[nH]1 [Compound 130]	< 100	1000 to 10000
CCCc1cc2c(N[C@H]3CC[C@H](N)CC3)c(-c3cc(N)ccn3)cnc2[nH]1 [Compound 131]	100 to 1000	1000 to 10000
CCc1cc2c(N[C@H]3CC[C@H](N)CC3)c(C(=O)NC3CCN(c4ncccn4)CC3)cnc2[nH]1 [Compound 132]	< 100	100 to 1000
CCCCCc1cc2c(N[C@H]3CC[C@H](N)CC3)c(C(=O)NCc3ccc(-n4ccnc4)cc3)cnc2[nH]1 [Compound 133]	< 100	100 to 1000
CCC(C)c1cc2c(N[C@H]3CC[C@H](N)CC3)c(C(=O)Nc3ccc(F)cc3)cnc2[nH]1 (some centres unmarked) [Compound 134]	< 100	1000 to 10000
N[C@H]1CC[C@H](Nc2c(C(=O)Nc3ccc(F)cc3)cnc3[nH]c(C(F)(F)F)cc23)CC1 [Compound 135, 4-(((1r,4r)-4-aminocyclohexyl)amino)-N-(4-fluorophenyl)-2-(trifluoromethyl)-1H-pyrrolo[2,3-b]pyridine-5-carboxamide hydrochloride]	< 100	100 to 1000
CCc1cc2c(N[C@H]3CC[C@H](N)CC3)c(C(=O)Nc3ccc(F)cc3)cnc2[nH]1 [Compound 136]	< 100	100 to 1000
CCCC(O)c1cc2c(N[C@H]3CC[C@H](N)CC3)c(Br)cnc2[nH]1 (some centres unmarked) [Compound 137]	100 to 1000	1000 to 10000
N[C@H]1CC[C@H](Nc2c(C(=O)Nc3ccc(F)cc3)cnc3[nH]c(C4CCC4)cc23)CC1 [Compound 138, 4-(((1r,4r)-4-aminocyclohexyl)amino)-2-cyclobutyl-N-(4-fluorophenyl)-1H-pyrrolo[2,3-b]pyridine-5-carboxamide hydrochloride]	< 100	1000 to 10000
CCCc1cc2c(N[C@H]3CC[C@H](N)CC3)c(C(=O)NC)cnc2[nH]1 [Compound 139]	< 100	100 to 1000
CCCc1cc2c(N[C@H]3CC[C@H](N)CC3)c(C(=O)OC)cnc2[nH]1 [Compound 140]	< 100	1000 to 10000
CCCc1cc2c(N[C@H]3CC[C@H](N)CC3)c(C(=O)NC3CCN(c4ncccn4)CC3)cnc2[nH]1 [Compound 141]	< 100	100 to 1000
CCCc1cc2c(N[C@H]3CC[C@H](N)CC3)c(Br)cnc2[nH]1 [Compound 142]	< 100	100 to 1000
CC(O)c1cc2c(N[C@H]3CC[C@H](O)CC3)c(-c3ccc(CN4CCOCC4)cn3)cnc2[nH]1 (some centres unmarked) [Compound 143]	< 100	1000 to 10000

Compound	Ki (MERTK) [nM]	Ki (AXL) [nM]
CCc1cc2c(N[C@H]3CC[C@H](O)CC3)c(-c3ccc(CN4CCOCC4)cn3)cnc2[nH]1 [Compound 144]	< 100	100 to 1000
COC(C)c1cc2c(N[C@H]3CC[C@H](N)CC3)c(C(=O)Nc3ccc(F)cc3)cnc2[nH]1 (some centres unmarked) [Compound 145]	100 to 1000	> 10000
CCC(OC)c1cc2c(N[C@H]3CC[C@H](N)CC3)c(C(=O)Nc3ccc(F)cc3)cnc2[nH]1 (some centres unmarked) [Compound 146]	100 to 1000	> 10000
CCC(CC)c1cc2c(N[C@H]3CC[C@H](N)CC3)c(C(=O)Nc3ccc(F)cc3)cnc2[nH]1 [Compound 147]	100 to 1000	1000 to 10000
CC(O)c1cc2c(N[C@H]3CC[C@H](N)CC3)c(C(=O)Nc3ccc(F)cc3)cnc2[nH]1 (some centres unmarked) [Compound 148]	100 to 1000	> 10000
CCC[C@H](C)c1cc2c(N[C@H]3CC[C@H](N)CC3)c(C(=O)Nc3ccc(F)cc3)cnc2[nH]1 [Compound 149]	100 to 1000	1000 to 10000
CCC[C@@H](C)c1cc2c(N[C@H]3CC[C@H](N)CC3)c(C(=O)Nc3ccc(F)cc3)cnc2[nH]1 [Compound 150]	< 100	1000 to 10000
CCOC(C)c1cc2c(N[C@H]3CC[C@H](N)CC3)c(C(=O)Nc3ccc(F)cc3)cnc2[nH]1 (some centres unmarked) [Compound 152]	100 to 1000	> 10000
CCCC(OC)c1cc2c(N[C@H]3CC[C@H](N)CC3)c(C(=O)Nc3ccc(F)cc3)cnc2[nH]1 (some centres unmarked) [Compound 153]	1000 to 10000	> 10000
CCCC(O)c1cc2c(N[C@H]3CC[C@H](N)CC3)c(C(=O)Nc3ccc(F)cc3)cnc2[nH]1 (some centres unmarked) [Compound 154]	1000 to 10000	> 10000
COCC(C)c1cc2c(N[C@H]3CC[C@H](N)CC3)c(C(=O)Nc3ccc(F)cc3)cnc2[nH]1 (some centres unmarked) [Compound 155]	100 to 1000	> 10000
CC[C@H](C)c1cc2c(N[C@H]3CC[C@H](N)CC3)c(C(=O)Nc3ccc(F)cc3)cnc2[nH]1 [Compound 156]	< 100	1000 to 10000
CCC(C)c1cc2c(N[C@H]3CC[C@H](O)CC3)c(C(=O)NC3CCN(c4ncccn4)CC3)cnc2[nH]1 (some centres unmarked) [Compound 157]	1000 to 10000	> 10000
CCC(C)c1cc2c(N[C@H]3CC[C@H](O)CC3)c(C(=O)NC3CCN(C4=NCCCN4)CC3)cnc2[nH]1 (some centres unmarked) [Compound 158]	< 100	1000 to 10000
CCC(C)c1cc2c(N[C@H]3CC[C@H](O)CC3)c(-c3ccc(S(=O)(=O)N4CCOCC4)cn3)cnc2[nH]1 (some centres unmarked) [Compound 159]	1000 to 10000	> 10000
